Experimental data from patent US5281596A, “Antibacterial drugs for fish” (Bayer Aktiengesellschaft, priority 1986, dated 1994).
≈ marks a conversion by molar mass, not a printed value. Where two headings read alike, the source gives them in different places.

Legend:
Type in all cases: cell-based
[1] = tested on: Aeromonas hydrophila; experiment: In vitro antibacterial activity on pathogenic bacteria for fish (agar MIC, Test Example 1); settings: 20 h; for MIC (minimum growth-inhibition concentration): Mueller-Hinton agar; for MIC: Aeromonas hydrophila
Protocol: (§1) In vitro antibacterial activity on pathogenic-bacteria for fish
(§2) Each of the test strains was cultured over-night, and each culture broth (containing about 10^6 cells/ml) was innoculated in Mueller-Hinton agar (DIFCO) supplied with 1.0-2.0% sodium chloride and containing the test compound at each specified concentration.

[2] = tested on: Pasteurella piscicida; experiment: as above; settings: 20 h; for MIC (minimum growth-inhibition concentration): Mueller-Hinton agar; for MIC: Photobacterium damselae
Protocol: as §1, §2

[3] = tested on: Vibrio anguillarum; experiment: as above; settings: 20 h; for MIC: Vibrio anguillarum, read-out: MIC (minimum growth-inhibition concentration); for MIC (minimum growth-inhibition concentration): Mueller-Hinton agar
Protocol: as §1, §2

[4] = tested on: Aeromonas salmonicida; experiment: In vitro antibacterial activity of Compound D against various pathogenic bacteria for fish (agar MIC, Test Example 2); settings: 20 h, read-out: MIC (minimum growth-inhibition concentration)
Protocol: (§3) In vitro antibacterial activity of Compound D against Various Pathogenic Bacteria for Fish
(§4) Each of the test strains was cultured over-night, and the resultant culture broth (containing about 10^6 cells/ml) was innoculated in Mueller-Hinton agar (DIFCO) supplied with 1.0-2.0% sodium chloride and containing the test compound at the specified concentration.

[5] = tested on: Edwardsiella tarda; experiment: as above; settings: 20 h, read-out: MIC (minimum growth-inhibition concentration)
Protocol: as §3, §4

[6] = tested on: Pasteurella piscicida; experiment: as above; settings: Photobacterium damselae, 20 h, read-out: MIC (minimum growth-inhibition concentration)
Protocol: as §3, §4

[7] = tested on: Pseudomonas anguilliseptica; experiment: as above; settings: 20 h, read-out: MIC (minimum growth-inhibition concentration)
Protocol: as §3, §4

[8] = tested on: Streptococcus sp.; experiment: as above; settings: 20 h, read-out: MIC (minimum growth-inhibition concentration)
Protocol: as §3, §4

[9] = tested on: Vibrio anguillarum; experiment: as above; settings: 20 h
Protocol: as §3, §4

[10] = tested on: Aeromonas hydrophila; experiment: as above; settings: 20 h, read-out: MIC (minimum growth-inhibition concentration)
Protocol: as §3, §4

[11] = 25 strains, Mueller-Hinton agar, 25-30 °C

CCN1CCN(c2cc3c(cc2F)c(=O)c(C(=O)O)cn3C2CC2)CC1 [Compound D, 1-cyclopropyl-6-fluoro-1,4-dihydro-4-oxo-7-(4-ethylpiperazino)-quinoline-3-carboxylic acid]
MIC (minimum growth-inhibition concentration) ([1]; Aeromonas hydrophila strain C 44, 25-30 °C): < 0.0125 µg/mL | MIC (minimum growth-inhibition concentration) ([1]; Aeromonas hydrophila strain KA8414, 25-30 °C): < 0.0125 µg/mL | MIC (minimum growth-inhibition concentration) ([1]; Aeromonas hydrophila strain KA8416, 25-30 °C): < 0.0125 µg/mL | MIC (minimum growth-inhibition concentration) ([1]; Aeromonas hydrophila strain M 183, 25-30 °C): < 0.0125 µg/mL | MIC ([1]; Aeromonas hydrophila strain KA8301, Mueller-Hinton agar, 25-30 °C, read-out: MIC (minimum growth-inhibition concentration)): 0.025 µg/mL (≈ 0.0696 µM) | MIC (minimum growth-inhibition concentration) ([2]; Pasteurella piscicida strain EH8309, 25-30 °C): 0.025 µg/mL (≈ 0.0696 µM) | MIC (minimum growth-inhibition concentration) ([2]; Pasteurella piscicida strain NG8319, 25-30 °C): 0.025 µg/mL (≈ 0.0696 µM) | MIC ([2]; Pasteurella piscicida strain EH8304, Mueller-Hinton agar, 25-30 °C, read-out: MIC (minimum growth-inhibition concentration)): 0.05 µg/mL (≈ 0.139 µM) | MIC ([2]; Pasteurella piscicida strain EH8312, Mueller-Hinton agar, 25-30 °C, read-out: MIC (minimum growth-inhibition concentration)): 0.05 µg/mL (≈ 0.139 µM) | MIC ([2]; Pasteurella piscicida strain EH8313, Mueller-Hinton agar, 25-30 °C, read-out: MIC (minimum growth-inhibition concentration)): 0.05 µg/mL (≈ 0.139 µM) | MIC ([3]; Vibrio anguillarum strain NA8340, Mueller-Hinton agar, 25-30 °C): 0.025 µg/mL (≈ 0.0696 µM) | MIC ([3]; Vibrio anguillarum strain NA8341, Mueller-Hinton agar, 25-30 °C): 0.025 µg/mL (≈ 0.0696 µM) | MIC ([3]; Vibrio anguillarum strain NA8346, Mueller-Hinton agar, 25-30 °C): 0.025 µg/mL (≈ 0.0696 µM) | MIC ([3]; Vibrio anguillarum strain NA8347, Mueller-Hinton agar, 25-30 °C): 0.025 µg/mL (≈ 0.0696 µM) | MIC ([3]; Vibrio anguillarum strain NH8410, Mueller-Hinton agar, 25-30 °C): 0.025 µg/mL (≈ 0.0696 µM) | MIC [4, 11]: 0.0125 to 0.1 µg/mL (≈ 0.0348 to 0.278 µM) | MIC [5, 11]: 0.025 to 0.2 µg/mL (≈ 0.0696 to 0.556 µM) | MIC ([6]; Pasteurella piscicida, 25 strains, Mueller-Hinton agar, 25-30 °C): 0.0125 to 0.05 µg/mL (≈ 0.0348 to 0.139 µM) | MIC ([7]; 18 strains, Mueller-Hinton agar, 25-30 °C): 0.0125 to 0.025 µg/mL (≈ 0.0348 to 0.0696 µM) | MIC ([8]; Streptococcus sp., 25 strains, Mueller-Hinton agar, 25-30 °C): 0.8 µg/mL (≈ 2.23 µM) | MIC ([9]; Ayu origin, 25 strains, Mueller-Hinton agar, 25-30 °C, read-out: MIC (minimum growth-inhibition concentration)): 0.025 to 0.4 µg/mL (≈ 0.0696 to 1.11 µM) | MIC ([9]; Yellowtail origin, 25 strains, Mueller-Hinton agar, 25-30 °C, read-out: MIC (minimum growth-inhibition concentration)): 0.05 to 0.1 µg/mL (≈ 0.139 to 0.278 µM)

CCn1cc(C(=O)O)c(=O)c2cc3c(cc21)OCO3 [Compound OA, 1-ethyl-1,4-dihydro-6,7-methylenedioxy-4-oxo-3-quinolinecarboxylic acid, reference compound]
MIC ([1]; read-out: MIC (minimum growth-inhibition concentration), Aeromonas hydrophila strain C 44, Mueller-Hinton agar, 25-30 °C): < 0.0125 µg/mL | MIC ([1]; read-out: MIC (minimum growth-inhibition concentration), Aeromonas hydrophila strain KA8301, Mueller-Hinton agar, 25-30 °C): < 0.0125 µg/mL | MIC ([1]; read-out: MIC (minimum growth-inhibition concentration), Aeromonas hydrophila strain KA8414, Mueller-Hinton agar, 25-30 °C): < 0.0125 µg/mL | MIC ([1]; read-out: MIC (minimum growth-inhibition concentration), Aeromonas hydrophila strain KA8416, Mueller-Hinton agar, 25-30 °C): < 0.0125 µg/mL | MIC ([1]; read-out: MIC (minimum growth-inhibition concentration), Aeromonas hydrophila strain M 183, Mueller-Hinton agar, 25-30 °C): < 0.0125 µg/mL | MIC ([2]; read-out: MIC (minimum growth-inhibition concentration), Pasteurella piscicida strain EH8304, Mueller-Hinton agar, 25-30 °C): 0.1 µg/mL (≈ 0.383 µM) | MIC ([2]; read-out: MIC (minimum growth-inhibition concentration), Pasteurella piscicida strain EH8309, Mueller-Hinton agar, 25-30 °C): 0.1 µg/mL (≈ 0.383 µM) | MIC ([2]; read-out: MIC (minimum growth-inhibition concentration), Pasteurella piscicida strain EH8312, Mueller-Hinton agar, 25-30 °C): 0.1 µg/mL (≈ 0.383 µM) | MIC ([2]; read-out: MIC (minimum growth-inhibition concentration), Pasteurella piscicida strain EH8313, Mueller-Hinton agar, 25-30 °C): 0.1 µg/mL (≈ 0.383 µM) | MIC ([2]; read-out: MIC (minimum growth-inhibition concentration), Pasteurella piscicida strain NG8319, Mueller-Hinton agar, 25-30 °C): 0.1 µg/mL (≈ 0.383 µM) | MIC (minimum growth-inhibition concentration) ([3]; Vibrio anguillarum strain NA8340, 25-30 °C): 0.05 µg/mL (≈ 0.191 µM) | MIC (minimum growth-inhibition concentration) ([3]; Vibrio anguillarum strain NA8341, 25-30 °C): 0.05 µg/mL (≈ 0.191 µM) | MIC (minimum growth-inhibition concentration) ([3]; Vibrio anguillarum strain NA8346, 25-30 °C): 0.05 µg/mL (≈ 0.191 µM) | MIC (minimum growth-inhibition concentration) ([3]; Vibrio anguillarum strain NA8347, 25-30 °C): 0.05 µg/mL (≈ 0.191 µM) | MIC [3]: 0.05 µg/mL (≈ 0.191 µM) | MIC [10]: 0.0125 to 0.025 µg/mL (≈ 0.0479 to 0.0957 µM) | MIC [4]: 0.05 to 3.2 µg/mL (≈ 0.191 to 12.2 µM) | MIC [5]: 0.05 to 1.6 µg/mL (≈ 0.191 to 6.12 µM) | MIC [6]: 0.025 to 0.1 µg/mL (≈ 0.0957 to 0.383 µM) | MIC [7]: 0.0125 to 0.05 µg/mL (≈ 0.0479 to 0.191 µM) | MIC ([8]; Streptococcus): 200 to 400 µg/mL (≈ 766 to 1530 µM) | MIC ([9]; read-out: MIC (minimum growth-inhibition concentration), Vibrio anguillarum, Ayu origin, 25 strains, Mueller-Hinton agar, 25-30 °C): 0.05 to 25 µg/mL (≈ 0.191 to 95.7 µM) | MIC ([9]; read-out: MIC (minimum growth-inhibition concentration), Vibrio anguillarum, Yellowtail origin, 25 strains, Mueller-Hinton agar, 25-30 °C): 0.025 to 0.05 µg/mL (≈ 0.0957 to 0.191 µM)
